Results taken from US4393003A, “β-Lactamase inhibitors” (Hoffmann-La Roche Inc., priority 1981, dated 1983).
Where two headings read alike, the source gives them in different places.

Key:
[1] = molecular target: T1, constitutive broad-spectrum TEM type beta-lactamase mediated by the resistance transfer factor R1 in Escherichia coli 1263B (Escherichia coli, UniProt P62593); assay: Cell-free enzyme assay, inhibition of nitrocefin hydrolysis; assay type: biochemical; conditions: preincubated with enzyme 20 min, 30° C., pH 7; nitrocefin substrate; read-out: I50, Escherichia coli R1
T1 construct: mediated by the resistance transfer factor R1 in Escherichia coli 1263B; endogenous in cells; host or cells: Escherichia coli 1263B carrying resistance transfer factor R1
T1 sequence (P62593 24-286 limits assumed): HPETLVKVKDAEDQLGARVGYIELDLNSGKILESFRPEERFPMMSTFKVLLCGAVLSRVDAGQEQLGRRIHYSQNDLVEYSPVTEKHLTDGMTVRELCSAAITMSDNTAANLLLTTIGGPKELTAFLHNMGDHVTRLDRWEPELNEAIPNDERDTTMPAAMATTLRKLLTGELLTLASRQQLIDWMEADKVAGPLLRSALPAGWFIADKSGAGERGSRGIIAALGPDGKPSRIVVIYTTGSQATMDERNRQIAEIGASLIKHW
Protocol: (§1) The test compound is preincubated with enzyme for 20 min. at 30° C. and pH 7. Chromogenic cephalosporin substrate, nitrocefin, is added and its initial rate of hydrolysis is recorded spectrophotometrically. Three enzyme preparations were employed:
(b) the constitutive broad-spectrum TEM type beta-lactamase mediated by the resistance transfer factor R1 in Escherichia coli 1263B, and
(§2) Included for comparison purposes were the antibiotics cloxacillin and dicloxacillin. I50 (μM) is calculated as the concentration necessary to inhibit the rate of nitrocefin hydrolysis by 50%.

[2] = tested on: E. Cloacae P99; assay: In vitro MIC by agar dilution, alone and mecillinam potentiation; assay type: cell-based
Protocol: (§3) The efficacy of putative β-lactamase inhibitors is assessed by determining the effect of the test compounds on the minimal inhibitory concentrations (MICs) of β-lactamase-sensitive antibiotics against bacterial strains known to produce β-lactamases.
(§4) The antibacterial activity of the β-lactamase inhibitor against the test strains is determined by a standard agar dilution method. Serial two-fold dilutions of the β-lactamase inhibitor are prepared in water to give concentrations 10 times the final desired concentrations. The aqueous dilutions are then further diluted 1:10 in Mueller-Hinton (MH) agar. These agar mixtures are poured into petri plates and allowed to harden. Each plate, including a drug-free control plate, is inoculated by means of a Steers replicator with 0.05 mL of 10^-4 dilutions of the test organisms. The 10^'4 dilutions of the organisms are prepared in MH broth from overnight TS broth cultures. The plates are examined for growth after overnight incubation at 37° C. The lowest drug concentration at which three or fewer colonies are observed is considered to be the MIC.
(§5) The β-lactamase inhibitor is then tested for potentiation of the antibiotic mecillinam. Aqueous solutions are prepared containing serial two-fold dilutions of mecillinam in the presence of the β-lactamase inhibitor at a constant concentration 2-4 fold less than its MIC for the most sensitive of the test organisms. The same procedure as above is then followed. Controls include a drug-free plate and a plate containing the β-lactamase inhibitor at the concentration used in the test. The MIC of mecillinam as a single agent is also determined at the same time.

[3] = tested on: E. Coli ST 323; assay: as above; assay type: cell-based; conditions: single agent, Mueller-Hinton agar, overnight 37° C.
Protocol: as §3, §4, §5

[4] = tested on: E. Coli 7289; assay: as above; assay type: cell-based; conditions: single agent, Mueller-Hinton agar, overnight 37° C.
Protocol: as §3, §4, §5

[5] = tested on: E. Coli K12R1; assay: as above; assay type: cell-based; conditions: single agent, Mueller-Hinton agar, overnight 37° C.
Protocol: as §3, §4, §5

[6] = tested on: S. Marcescens S5; assay: as above; assay type: cell-based; conditions: single agent, Mueller-Hinton agar, overnight 37° C.
Protocol: as §3, §4, §5

[7] = tested on: P. Aeruginosa 5700; assay: as above; assay type: cell-based
Protocol: as §3, §4, §5

[8] = molecular target: T2, inducible penicillinase from Staphylococcus aureus 1059B (Staphylococcus aureus, UniProt P00807); assay: Cell-free enzyme assay, inhibition of nitrocefin hydrolysis; assay type: biochemical
T2 construct: the inducible penicillinase from Staphylococcus aureus 1059B; endogenous in cells; host or cells: Staphylococcus aureus 1059B
T2 sequence (P00807 25-281): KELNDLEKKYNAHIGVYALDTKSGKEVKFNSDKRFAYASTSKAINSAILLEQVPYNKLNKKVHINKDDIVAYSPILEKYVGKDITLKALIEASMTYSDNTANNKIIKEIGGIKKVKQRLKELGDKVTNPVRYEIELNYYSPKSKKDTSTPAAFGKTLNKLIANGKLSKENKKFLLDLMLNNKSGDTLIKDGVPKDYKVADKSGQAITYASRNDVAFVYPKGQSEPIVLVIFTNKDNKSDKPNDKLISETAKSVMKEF
Protocol: as §1
(a) the inducible penicillinase from Staphylococcus aureus 1059B,
as §2

[9] = molecular target: T3, type Ia cephalosporinase from Enterobacter cloacae (Enterobacter cloacae, UniProt P05364); assay: as above; assay type: biochemical
T3 construct: purchased Miles Laboratories
T3 sequence (P05364 21-381): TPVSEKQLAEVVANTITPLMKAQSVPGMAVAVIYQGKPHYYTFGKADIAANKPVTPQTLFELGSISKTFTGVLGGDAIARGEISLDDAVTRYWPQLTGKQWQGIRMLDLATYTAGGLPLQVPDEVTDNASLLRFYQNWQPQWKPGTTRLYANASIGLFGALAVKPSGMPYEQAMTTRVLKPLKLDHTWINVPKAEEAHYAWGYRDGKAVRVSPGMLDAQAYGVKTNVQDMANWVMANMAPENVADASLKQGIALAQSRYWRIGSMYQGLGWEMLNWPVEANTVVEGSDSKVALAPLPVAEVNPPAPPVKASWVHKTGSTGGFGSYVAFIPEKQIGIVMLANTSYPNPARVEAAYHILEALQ
Protocol: as §1
(c) the type Ia cephalosporinase from Enterobacter cloacae purchased from Miles Laboratories.
as §2

[10] = Escherichia coli, read-out: MIC
[11] = preincubated with enzyme 20 min, 30° C., pH 7, nitrocefin substrate, read-out: I50, Staphylococcus aureus
[12] = preincubated with enzyme 20 min, 30° C., pH 7, nitrocefin substrate, read-out: I50, Enterobacter cloacae

Structure (SMILES): C[C@]12C[C@@]1(C(=O)O)N1C(=O)C[C@H]1S2(=O)=O [compound of formula I, [2S-(2α,4α,6α)]-4-Methyl-8-oxo-5-thia-1-azatricyclo[4.2.0.0^2,4]octane-2-carboxylic acid 5,5-dioxide]
- IC50 [1]: 1.1 µM
- MIC ([2]; E. Cloacae P99, single agent, Mueller-Hinton agar, overnight 37° C.): Inert
- MIC [3]: Inert
- MIC [4]: Inert
- MIC [5]: Inert
- MIC [6]: Inert
- MIC ([7]; P. Aeruginosa 5700, single agent, Mueller-Hinton agar, overnight 37° C.): Inert
- IC50 [8]: 6.7 µM
- IC50 [9]: 69 µM

Structure (SMILES): CC1(C)S[C@@H]2[C@H](/N=C/N3CCCCCC3)C(=O)N2[C@H]1C(=O)O [Mecillinam, mecillinam]
- MIC ([2]; Enterobacter cloacae): 0.03 µg/mL
- MIC [3, 10]: 4 µg/mL
- MIC [4, 10]: 32 µg/mL
- MIC [5, 10]: 1 µg/mL
- MIC ([6]; Serratia marcescens, read-out: MIC): 4 µg/mL
- MIC ([7]; Pseudomonas aeruginosa): > 128 µg/mL

Structure (SMILES): Cc1onc(-c2ccccc2Cl)c1C(=O)N[C@@H]1C(=O)N2[C@@H]1SC(C)(C)[C@@H]2C(=O)O [Cloxacillin]
- IC50 [1]: 68 µM
- IC50 [8, 11]: 365 µM
- IC50 [9, 12]: 0.0015 µM

Structure (SMILES): Cc1onc(-c2c(Cl)cccc2Cl)c1C(=O)N[C@@H]1C(=O)N2[C@@H]1SC(C)(C)[C@@H]2C(=O)O [Dicloxacillin]
- IC50 [1]: 32 µM
- IC50 [8, 11]: 96 µM
- IC50 [9, 12]: 0.0014 µM
